Laboratory results reported in patent publication US11040994B2, “Cobalt complexes, process for preparation and use thereof” (COUNCIL OF SCIENTIFIC AND INDUSTRIAL RESEARCH, priority 2017, dated 2021).

Legend:
full-length Tau = full-length Tau (Homo sapiens, UniProt P10636); details: for maximum inhibition of full-length Tau aggregation: 0.05 and 0.1 mg/mL complex
Procedure: Tau was induced to aggregate as described previously with certain modifications. In presence heparin (17,500 Da) in the ratio of 4:1, Tau was polymerized in assembly buffer containing 20 mM BES. pH 7.4, 25 mM NaCl, 1 mM DTT, 0.01% NaN3 and protease inhibitor cocktails. The reaction mixture was incubated at 37° C. and the aggregates formation was monitored by ThS fluorescence, SDS-PAGE and TEM at certain time intervals. The Tau protein was allowed to assemble in presence and absence of compounds in increasing concentrations with constant Tau concentrations of 0.91 mg/mL and 0.28 mg/mL for full-length and four repeat Tau respectively. The changes in the conformation of Tau protein was monitored by CD spectroscopy.
(§1) Thioflavin S fluorescence assay: 5 μl of reaction mixture was diluted with 8 μM ThS in 50 mM ammonium acetate, pH 7.4 and added to 384 well plates in triplicates. Subsequently blank was also prepared for subtracting background fluorescence. The plate was incubated in the dark before measuring ThS fluorescence for 20 minutes, at an emission wavelength of 521 nm by exciting it at 440 nm in Tecan Infinite 200 PRO multimode microplate reader.

[1] = target: full-length Tau aggregates (Homo sapiens, UniProt P10636); details: highest concentration (range 0.01 mg/mL to 0.1 mg/mL); ThS fluorescence
Chain of full-length Tau aggregates (P10636 1-441 isoform P10636-8): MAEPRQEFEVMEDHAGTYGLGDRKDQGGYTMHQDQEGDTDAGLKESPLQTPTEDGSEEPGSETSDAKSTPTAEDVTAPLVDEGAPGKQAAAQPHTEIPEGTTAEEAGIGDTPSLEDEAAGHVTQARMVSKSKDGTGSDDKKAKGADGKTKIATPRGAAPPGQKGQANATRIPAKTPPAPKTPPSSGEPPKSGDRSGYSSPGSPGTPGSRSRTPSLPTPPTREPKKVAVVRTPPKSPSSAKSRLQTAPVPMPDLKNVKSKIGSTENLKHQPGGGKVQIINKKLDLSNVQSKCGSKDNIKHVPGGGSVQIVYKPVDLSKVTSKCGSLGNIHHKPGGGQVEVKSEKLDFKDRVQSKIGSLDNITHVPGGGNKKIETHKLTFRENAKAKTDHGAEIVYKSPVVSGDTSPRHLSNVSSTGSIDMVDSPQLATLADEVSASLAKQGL
Procedure: (§2) Disaggregation assay: The potency of the metal complexes for disaggregating the preformed Tau aggregates was also analysed. Soluble Tau was dissolved in assembly buffer and was incubated at 37° C. for PHF assembly. The formation of aggregates was analysed by fluorescence assay and SDS-PAGE. Thus formed aggregates were diluted to 0.91 mg/mL final concentration in 20 mM BES buffer, pH 7.4 and this mixture was incubated with increasing concentration of metal complex as discussed earlier.
as §1

Tau PHFs = Tau PHFs (Homo sapiens, UniProt P10636); details: for Tau disaggregation by TEM: 0 hour; for Tau PHF disaggregation by TEM: prolonged incubation
Chain of Tau PHFs (P10636 1-441 isoform P10636-8): as above
Procedure: as §2
Transmission Electron Microscopy (TEM): The degree of aggregates formation in presence of the metal complexes was analysed by TEM (Tecnai T-20). The assay mixture was diluted to 1 μM final concentration and spotted on the carbon coated copper grids. This was further stained by 2% uranyl acetate to observe the morphology of aggregates under TEM.

[2] = heparin as inducer, ThS fluorescence

Chain of full-length Tau (P10636 1-441 isoform P10636-8): as above

| Compound | maximum inhibition of full-length Tau aggregation (full-length Tau; [2]) | effectiveness in inhibiting aggregation compared between complexes (full-length Tau; lower concentration) | disaggregation of full-length Tau aggregates [1] [%] | Tau disaggregation by TEM (Tau PHFs) | Tau PHF disaggregation by TEM (Tau PHFs) | inhibition rate of full-length Tau aggregation (full-length Tau; highest concentration of 0.1 mg/mL, heparin as inducer, ThS fluorescence) [%] |
| --- | --- | --- | --- | --- | --- | --- |
| [Cl][Co][Cl].c1cc(CN2CCOCC2)nc(CN2CCOCC2)c1 [L2, Cobalt(II)(2,6-bis(morpholinomethyl)pyridine)chloride] | about 97% | more effective in comparison with L1 and L3 | 72 | very negligible effect | destructed into shorter filaments |  |
| Cobalt(II)(2,6-bis((4-methylpiperazin-1-yl)methyl)pyridine)chloride [L3] | about 97% |  | 77 | very negligible effect | destructed into shorter filaments |  |
| Cobalt(II)(2,6-bis(piperazin-1-ylmethyl)pyridine)chloride [L1] |  |  | 74 | very negligible effect | destructed into shorter filaments | 97 |
